The text below walks through data of patent US20220265769A1, “COMPOSITIONS AND METHODS OF TREATMENT FOR BREAST CANCER INVOLVING A NOVEL CAPER?-MLL1 COMPLEX” (Geisinger Health, priority 2019, published 2022).

For test [1], the target named is T1, RBM39 and RNA binding proteins (RBPs) (Homo sapiens, UniProt Q14498).
T1 construct: endogenous in cells; host or cells: T47D
T1 sequence (Q14498 2-530 limits assumed): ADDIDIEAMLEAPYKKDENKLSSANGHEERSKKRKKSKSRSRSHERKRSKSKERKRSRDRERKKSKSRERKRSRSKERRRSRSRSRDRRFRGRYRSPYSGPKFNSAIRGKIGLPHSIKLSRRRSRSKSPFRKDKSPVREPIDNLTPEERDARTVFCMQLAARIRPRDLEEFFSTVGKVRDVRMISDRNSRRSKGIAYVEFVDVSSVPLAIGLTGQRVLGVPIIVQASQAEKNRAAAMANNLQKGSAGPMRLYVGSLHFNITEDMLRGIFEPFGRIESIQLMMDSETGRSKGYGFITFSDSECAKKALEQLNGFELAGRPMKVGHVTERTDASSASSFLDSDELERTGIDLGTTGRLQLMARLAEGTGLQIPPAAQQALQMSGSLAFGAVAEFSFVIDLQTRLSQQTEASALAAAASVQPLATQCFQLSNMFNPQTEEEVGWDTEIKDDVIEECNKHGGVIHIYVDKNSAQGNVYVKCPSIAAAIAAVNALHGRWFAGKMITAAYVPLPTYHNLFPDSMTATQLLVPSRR
Put plainly: Co-immunoprecipitation of RBM39 and its RBP interactors in peptide-treated T47D cell lysates. Format: cell-based. As to conditions: versus Neg.CPP. From the text:
(§1) FIG. 31. Key structural domains mediate the RRM3-MLL1 interaction. A) Modeling of RRM3 domain structure (amino acids: 441 to 510; SEQ ID NO: 13) using the SWISS MODEL tool and conserved domains by sequence alignment with vertebrate RRM-domaining proteins (https://www.ncbi.nlm.nih.gov/Structure/cdd/cddsrv.cgi?uid=240731) B) Top: anti-MLL1 IB to test the interaction between MLL1 and myc-tagged, deletion mutant RRM3 proteins in HEK293 cells. Bottom: IB/IP to quantitate myc-tagged proteins in lysates from HEK293 overexpressing wild type and microdeleted RRM3 domains. C) Bar graphs quantitating % viable cells after peptide treatments (peptides are numbered 1-5 as in FIG. 10) for 4 days. […] Lanes are labeled with peptide names. Arrowhead highlights signal from the entry of CPP. […] F) Anti-RBM39 immunoprecipitated samples from Neg.CPP (SEQ ID NO: 12), CPP-L491-L508 (SEQ ID NO: 24), CPP-G441-V460 (SEQ ID NO: 20), and CPP-E445-V476 (SEQ ID NO: 15) treated T47D lysates assayed by immunoblotting with antibodies against MLL1, ASH2L, RbBP5. […] G) Representative co-immunoprecipitations to show the interaction between RBM39 and its RBP interactors in Neg.CPP and CPP-E445-V476 treated T47D cell lysates. […]

Test [2] concerns the target T2, RBM39 (CAPERα)/MLL1 complex (Homo sapiens, UniProt Q03164).
T2 construct: endogenous in cells; lines from ATCC
Nature of the test: Anti-RBM39 co-immunoprecipitation of MLL1 complex members from peptide-treated breast cancer cell lysates. Format: cell-based.
From the text: as §1

Test [3] concerns breast cancer cell subtypes. Nature of the test: Total cell number and viability of an array of breast cancer cell subtypes treated with synthetic RRM3-derived peptides. In kind it is cell-based, human. As to conditions: synthetic peptides at 5 μM; for proliferation (total cell number) of breast cancer cell subtypes: 72 hours. The method, then: FIG. 10. RRM3-derived CPPs disrupts growth of multiple breast cancer cell subtypes but has no effect on normal cells. A) Schematic of RRM3 amino acids 441-510 (SEQ ID NO: 13). B) Bars represent the peptide regions used to generate CPPs based on deletion results in FIG. 31. C) Amino acid sequences of synthetic peptide: Penetratin, His tag and RRM3-derived peptide. D) Representative images of crystal violet stained breast cancer cells as listed at top, taken after 72 hours days of treatment with synthetic peptides at 5 μM. E) Quantification of total cell numbers of different cell types and peptide (1-5) treatments.
FIG. 31. Key structural domains mediate the RRM3-MLL1 interaction. A) Modeling of RRM3 domain structure (amino acids: 441 to 510; SEQ ID NO: 13) using the SWISS MODEL tool and conserved domains by sequence alignment with vertebrate RRM-domaining proteins (https://www.ncbi.nlm.nih.gov/Structure/cdd/cddsrv.cgi?uid=240731) B) Top: anti-MLL1 IB to test the interaction between MLL1 and myc-tagged, deletion mutant RRM3 proteins in HEK293 cells. Bottom: IB/IP to quantitate myc-tagged proteins in lysates from HEK293 overexpressing wild type and microdeleted RRM3 domains. C) Bar graphs quantitating % viable cells after peptide treatments (peptides are numbered 1-5 as in FIG. 10) for 4 days. […] Lanes are labeled with peptide names. Arrowhead highlights signal from the entry of CPP. […] F) Anti-RBM39 immunoprecipitated samples from Neg.CPP (SEQ ID NO: 12), CPP-L491-L508 (SEQ ID NO: 24), CPP-G441-V460 (SEQ ID NO: 20), and CPP-E445-V476 (SEQ ID NO: 15) treated T47D lysates assayed by immunoblotting with antibodies against MLL1, ASH2L, RbBP5. […] G) Representative co-immunoprecipitations to show the interaction between RBM39 and its RBP interactors in Neg.CPP and CPP-E445-V476 treated T47D cell lysates. […] Immunoprecipitations and Immunoblots assaying RBM39-MLL1 interaction in neg.CPP and CPP-E445-V476 treated T47D, HCC1954, MDA-MB231 and ZR7530 cells show reduced interaction between MLL1 and RBM39 in vivo. (arrows highlight decreased interaction).
(§2) Cell counts for CPP treatments: Cells were plated in 6-well dishes and incubated with 5 μM concentration of peptides. At days noted, cells were trypsinized and counted using a hemocytometer.
Generation of synthetic peptides from the RRM3 domain: RRM3-derived peptides were commercially synthesized by Abm at purity >80%. Peptides were dissolved in 1λPBS at 1 mg/ml and used at 5 μM in low serum (1%) RPMI media.
As per UniProt, RRM3 spans amino acids (aa) 445-508 (SEQ ID NO: 34) and SWISS tool predicts 2 α helices and 4 β sheets that are conserved in vertebrate RRM-containing proteins (FIG. 31A). A series of myc-tag microdeleted constructs were designed to identify regions required for MLL1 binding. […]

A further test deals with PME cells. Nature of the test: Crystal violet assay / cell counts of primary mammary epithelial cells (PMEs) treated with cell penetrating peptides. Format: cell-based, human. As to conditions: synthetic peptides at 5 μM. Here is the method: Crystal violet assay/optical density method of cell quantitation: 5×10^5 cells were plated per well in 6-well tissue culture plates. At times indicated cells were washed with PBS and fixed for 10 minutes in a 10% formalin solution. Cells were then rinsed with distilled water and subsequently stained with 100 μl 0.1% crystal violet solution for 30 min. Stained cells were rinsed with water to remove the excess traces of the staining solution. Cell-associated crystal violet dye was extracted with 500 μl of 10% acetic acid. Aliquots were collected and optical density was measured at 590 nm wavelength. Each point on the curve shown represents 3 independent wells.
as §2
Whether recombinant RRM3 conjugated with the Penetratin cell penetrating peptide (Dupont E, et al., Methods Mol Biol. 1324:29-37 (2015)) (FIGS. 9A, B) affects growth of T47D and PME cells was tested. Equal numbers of PME and T47D cells were seeded and incubated with 5 μM peptide in media for 72 hrs. […] Compared to CPP-coupled RRM3, CPP-RRM1 and RRM3 had no effect (FIGS. 9H-N). […]

T2 sequence (Q03164 1-2718 limits assumed): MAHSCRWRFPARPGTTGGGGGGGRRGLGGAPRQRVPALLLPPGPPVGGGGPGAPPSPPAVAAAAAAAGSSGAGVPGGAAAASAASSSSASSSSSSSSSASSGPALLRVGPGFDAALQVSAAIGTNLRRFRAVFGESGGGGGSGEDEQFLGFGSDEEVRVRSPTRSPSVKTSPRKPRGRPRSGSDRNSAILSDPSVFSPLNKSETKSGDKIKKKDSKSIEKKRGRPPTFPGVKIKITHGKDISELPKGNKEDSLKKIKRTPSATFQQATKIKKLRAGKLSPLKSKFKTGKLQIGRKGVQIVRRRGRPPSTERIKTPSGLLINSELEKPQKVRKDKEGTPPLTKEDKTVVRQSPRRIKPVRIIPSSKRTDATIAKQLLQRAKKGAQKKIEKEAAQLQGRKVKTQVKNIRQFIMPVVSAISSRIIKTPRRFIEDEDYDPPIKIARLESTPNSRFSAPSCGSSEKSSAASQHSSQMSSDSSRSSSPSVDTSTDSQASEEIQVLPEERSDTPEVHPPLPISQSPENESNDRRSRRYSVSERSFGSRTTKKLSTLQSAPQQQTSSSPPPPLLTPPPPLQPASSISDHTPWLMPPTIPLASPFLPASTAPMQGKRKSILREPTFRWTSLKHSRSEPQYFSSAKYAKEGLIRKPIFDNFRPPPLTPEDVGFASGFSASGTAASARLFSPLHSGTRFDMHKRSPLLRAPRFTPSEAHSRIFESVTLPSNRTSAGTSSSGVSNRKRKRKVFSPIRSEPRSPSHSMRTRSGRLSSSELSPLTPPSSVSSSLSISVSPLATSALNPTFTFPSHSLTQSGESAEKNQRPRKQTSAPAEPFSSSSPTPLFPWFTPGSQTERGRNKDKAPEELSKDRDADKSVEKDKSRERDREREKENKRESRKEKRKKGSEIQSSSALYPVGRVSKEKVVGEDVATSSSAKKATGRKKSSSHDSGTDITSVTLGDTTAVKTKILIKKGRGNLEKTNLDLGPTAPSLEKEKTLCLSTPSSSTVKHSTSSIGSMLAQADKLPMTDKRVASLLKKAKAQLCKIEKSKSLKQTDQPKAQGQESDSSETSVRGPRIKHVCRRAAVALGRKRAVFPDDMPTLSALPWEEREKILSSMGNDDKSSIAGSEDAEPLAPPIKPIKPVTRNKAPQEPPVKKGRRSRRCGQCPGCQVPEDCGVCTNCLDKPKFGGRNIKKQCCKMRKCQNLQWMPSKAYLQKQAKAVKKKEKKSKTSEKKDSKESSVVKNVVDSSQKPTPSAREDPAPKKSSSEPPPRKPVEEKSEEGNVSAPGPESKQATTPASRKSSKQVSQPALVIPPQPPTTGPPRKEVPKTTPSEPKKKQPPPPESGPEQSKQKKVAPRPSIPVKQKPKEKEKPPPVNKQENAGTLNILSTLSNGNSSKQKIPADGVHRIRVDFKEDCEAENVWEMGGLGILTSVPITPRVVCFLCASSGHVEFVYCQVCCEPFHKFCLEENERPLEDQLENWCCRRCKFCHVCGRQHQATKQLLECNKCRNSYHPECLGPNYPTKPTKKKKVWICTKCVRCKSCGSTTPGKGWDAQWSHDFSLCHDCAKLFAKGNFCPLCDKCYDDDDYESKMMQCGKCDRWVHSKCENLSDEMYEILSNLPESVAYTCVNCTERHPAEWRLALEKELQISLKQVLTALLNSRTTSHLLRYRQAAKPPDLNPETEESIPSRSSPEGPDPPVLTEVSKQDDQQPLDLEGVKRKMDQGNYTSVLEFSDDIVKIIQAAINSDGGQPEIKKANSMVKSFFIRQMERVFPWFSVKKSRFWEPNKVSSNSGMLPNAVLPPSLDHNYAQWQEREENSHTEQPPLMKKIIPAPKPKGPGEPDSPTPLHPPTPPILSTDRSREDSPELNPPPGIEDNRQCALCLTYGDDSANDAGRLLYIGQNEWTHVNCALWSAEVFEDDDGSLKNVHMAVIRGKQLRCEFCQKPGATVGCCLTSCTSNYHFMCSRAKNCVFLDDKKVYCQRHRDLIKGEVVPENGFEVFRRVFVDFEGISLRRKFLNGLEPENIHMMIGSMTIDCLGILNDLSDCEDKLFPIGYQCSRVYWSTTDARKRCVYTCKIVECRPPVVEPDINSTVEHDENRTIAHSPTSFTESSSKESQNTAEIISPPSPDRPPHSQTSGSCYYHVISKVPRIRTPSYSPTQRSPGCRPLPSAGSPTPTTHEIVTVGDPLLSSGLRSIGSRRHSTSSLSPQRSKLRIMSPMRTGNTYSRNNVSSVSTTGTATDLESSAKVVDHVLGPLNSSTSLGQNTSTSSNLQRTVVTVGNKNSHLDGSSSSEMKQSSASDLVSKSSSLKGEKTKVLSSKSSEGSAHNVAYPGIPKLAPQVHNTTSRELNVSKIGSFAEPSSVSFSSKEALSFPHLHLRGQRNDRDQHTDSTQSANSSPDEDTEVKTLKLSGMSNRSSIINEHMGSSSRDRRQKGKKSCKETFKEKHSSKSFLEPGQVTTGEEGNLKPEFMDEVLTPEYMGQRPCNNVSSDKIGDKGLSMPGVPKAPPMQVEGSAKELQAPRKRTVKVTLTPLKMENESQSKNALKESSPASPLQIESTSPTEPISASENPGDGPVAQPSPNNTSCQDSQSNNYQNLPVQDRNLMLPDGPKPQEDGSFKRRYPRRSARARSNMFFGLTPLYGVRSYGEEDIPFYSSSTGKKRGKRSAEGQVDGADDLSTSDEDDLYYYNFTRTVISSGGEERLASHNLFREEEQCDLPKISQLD
T2 sequence (Q03164 2719-3969 limits assumed): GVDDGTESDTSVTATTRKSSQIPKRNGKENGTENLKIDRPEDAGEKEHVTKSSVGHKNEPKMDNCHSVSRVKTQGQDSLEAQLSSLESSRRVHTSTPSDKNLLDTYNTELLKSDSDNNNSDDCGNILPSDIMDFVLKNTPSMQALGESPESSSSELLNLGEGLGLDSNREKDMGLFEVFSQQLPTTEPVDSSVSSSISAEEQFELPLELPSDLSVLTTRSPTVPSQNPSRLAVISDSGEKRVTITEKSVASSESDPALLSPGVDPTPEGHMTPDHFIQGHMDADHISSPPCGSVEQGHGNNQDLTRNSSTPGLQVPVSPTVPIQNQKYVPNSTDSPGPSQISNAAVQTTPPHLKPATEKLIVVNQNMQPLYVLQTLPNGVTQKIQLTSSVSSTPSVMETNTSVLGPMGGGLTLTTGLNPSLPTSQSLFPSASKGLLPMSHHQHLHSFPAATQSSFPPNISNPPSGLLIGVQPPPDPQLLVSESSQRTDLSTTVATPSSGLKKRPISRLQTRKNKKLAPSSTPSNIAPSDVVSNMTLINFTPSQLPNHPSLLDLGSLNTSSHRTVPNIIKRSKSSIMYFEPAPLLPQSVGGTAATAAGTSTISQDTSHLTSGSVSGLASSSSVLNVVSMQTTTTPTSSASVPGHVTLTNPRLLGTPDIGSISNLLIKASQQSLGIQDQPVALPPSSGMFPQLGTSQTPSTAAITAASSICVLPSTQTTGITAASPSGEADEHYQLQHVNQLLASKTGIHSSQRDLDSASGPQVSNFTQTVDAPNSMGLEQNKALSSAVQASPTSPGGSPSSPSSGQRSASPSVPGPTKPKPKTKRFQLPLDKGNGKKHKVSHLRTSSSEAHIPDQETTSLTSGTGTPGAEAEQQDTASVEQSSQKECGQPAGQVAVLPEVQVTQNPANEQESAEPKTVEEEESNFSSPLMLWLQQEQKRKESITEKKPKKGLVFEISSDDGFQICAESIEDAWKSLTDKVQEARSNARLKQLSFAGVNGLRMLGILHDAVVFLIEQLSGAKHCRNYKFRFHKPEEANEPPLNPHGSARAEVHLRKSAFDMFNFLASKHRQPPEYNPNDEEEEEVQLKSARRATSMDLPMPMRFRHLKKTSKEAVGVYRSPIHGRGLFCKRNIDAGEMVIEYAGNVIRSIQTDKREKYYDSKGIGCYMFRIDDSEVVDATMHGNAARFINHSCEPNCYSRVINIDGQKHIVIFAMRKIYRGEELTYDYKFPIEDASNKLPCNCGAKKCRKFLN
T2 sequence (Q15291 whole entry partner): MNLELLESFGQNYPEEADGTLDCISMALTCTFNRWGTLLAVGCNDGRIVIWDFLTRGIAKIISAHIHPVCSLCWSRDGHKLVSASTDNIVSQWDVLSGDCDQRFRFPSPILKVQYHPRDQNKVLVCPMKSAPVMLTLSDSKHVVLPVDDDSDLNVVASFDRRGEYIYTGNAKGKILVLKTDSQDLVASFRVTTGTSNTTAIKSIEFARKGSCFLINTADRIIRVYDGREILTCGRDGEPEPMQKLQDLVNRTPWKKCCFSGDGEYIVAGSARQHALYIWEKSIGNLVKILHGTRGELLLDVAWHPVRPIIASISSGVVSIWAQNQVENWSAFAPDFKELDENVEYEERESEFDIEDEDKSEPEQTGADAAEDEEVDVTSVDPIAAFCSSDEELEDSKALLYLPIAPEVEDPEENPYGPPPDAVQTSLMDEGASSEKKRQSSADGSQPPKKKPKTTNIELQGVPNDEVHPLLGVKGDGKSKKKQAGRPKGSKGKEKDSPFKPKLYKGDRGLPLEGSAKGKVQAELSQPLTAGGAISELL

Regarding “CPP-E445-V476: synthetic RRM3-derived peptide E445-V476 with Penetratin and His tags (SEQ ID NO: 15; with His tag SEQ ID NO: 14) (RQIKIWFQNRRMKWKKGGEIKDDVIEECNKHGGVIHIYVDKNSAQGNVYVHHHHHH; RRM3-derived synthetic sequence)”, in test [1], the “interaction of RBM39 with RBPs” value is given as “did not affect the interaction”. Also, in test [2] (T47D, HCC1954, MDA-MB231 and ZR7530 cells, versus neg.CPP), the “endogenous interaction between RBM39 and MLL1” value is given as “disrupts the endogenous interaction”. Further, the “interaction between RBM39 and MLL1 complex members (MLL1, ASH2L, RbBP5)” value in test [2] (treated T47D lysates, anti-RBM39 immunoprecipitation) is recorded as “reduced the interaction”. Further, the “proliferation (total cell number) of breast cancer cell subtypes” value (“proliferation (total cell number)” below) in test [3] is reported as “pronounced effects on all subtypes”. Further, the “viability (% viable cells) of breast cancer cell subtypes” value in test [3] (4 days) is given as “pronounced effects on all subtypes”. In addition, the “effect on PMEs / normal cells (proliferation and viability)” value in the test with PME cells is “no effect”.

Consider “CPP-G441-V460: synthetic RRM3-derived peptide G441-V460 with Penetratin and His tags (SEQ ID NO: 20; with His tag SEQ ID NO: 21) (RQIKIWFQNRRMKWKKGGGWDTEIKDDVIEECNKHGGVHHHHHH; RRM3-derived synthetic sequence)”, for which the “proliferation (total cell number)” value in test [3] was “affected some Luminal and HER2+ subtypes”.

Turning to “RRM3 E445-V476: RRM3 E445-V476 peptide in the absence of Penetratin, negative control (SEQ ID NO: 2) (EIKDDVIEECNKHGGVIHIYVDKNSAQGNVYV; listed as Homo sapiens)”, the “proliferation (total cell number)” value in test [3] is “no effect”.
